Assay: potentiometric solubility-pH profile titration (pSol)
Format: physicochemical
Settings: FIG. 8
Excerpt: The above described titration e.g. of a weak base B from high to low pH-values is used for potentiometric determination of solubility profiles according to the so-called “pSol method” (see e.g. Avdeef, A., 1998, loc. cit.). However, in pSol titrations the phenomenon of a “perfect” buffer system is not encountered frequently because in order to obtain good titration results it is advisable to use only small amounts of the compound under investigation. This leads to a situation where the whole amount of the compound is dissolved before the maximal effective concentration corresponding to point 2 in FIG. 1 is reached. This is illustrated in FIG. 3, where reduction of the pH-value leads along the solubility profile until reaching the point denoted as 2′ in FIG. 3. […] Therefore, the total concentration of the compound remains constant at a value CT.
Measurements of solubility-pH profiles were carried out on a “pSol” apparatus (see e.g. Avdeef, A., 2001, loc. cit.). The potentiometric solubility measurement with the pSol apparatus takes as input parameters the weighted amount of the said compound, the volume of the solution, the measured pKa and the measured (or calculated) octanol/water partition coefficient, logP. […]

## COc1ccc2c3c1O[C@H]1[C@@H](O)C=C[C@H]4[C@@H](C2)N(C)CC[C@@]341 [codeine]
Total concentration about 58 mg/mL for the titration
  pH at which the precipitation begins: about 7
Total concentration of about 13 mg/mL for the titration
  pH at which the precipitation begins: about 8
